In a compilation of properties of binary mixtures (doi:10.1016/j.molliq.2022.120193):

Assay: xn = mol fraction of the nth substance listed
Settings: 100 kPa

CC[N+](C)(CC)CCOC.F[B-](F)(F)F + CCCC[n+]1ccn(C)c1C.F[B-](F)(F)F
electrical conductivity [S/m]
Settings	x1 = 0.1	x1 = 0.2	x1 = 0.3	x1 = 0.4	x1 = 0.5	x1 = 0.6	x1 = 0.7	x1 = 0.8	x1 = 0.9	x1 = 1
313.15 K	0.231	0.244	0.282	–	0.29	0.296	–	0.321	0.348	0.343
318.15 K	0.305	–	0.354	–	–	0.38	0.392	–	0.445	–
323.15 K	0.392	0.404	0.437	0.445	0.465	0.472	0.498	0.519	–	0.553
328.15 K	–	–	0.534	0.541	–	0.579	0.614	0.639	–	0.68
333.15 K	0.604	0.613	0.643	0.67	–	0.72	0.766	0.782	0.822	0.829
338.15 K	0.727	0.736	0.758	–	0.79	0.828	0.884	0.939	0.995	1
343.15 K	0.861	0.871	0.9	–	0.936	0.978	1.03	1.09	–	1.18
348.15 K	1.02	1.03	1.05	1.07	1.09	–	1.2	1.27	1.37	1.39
353.15 K	1.16	–	–	–	–	1.32	–	1.42	1.59	–
358.15 K	1.31	1.35	–	–	1.46	1.51	1.56	–	1.82	1.86
363.15 K	1.5	1.53	1.58	1.62	–	1.73	1.77	1.82	2.01	–

CCCCn1cc[n+](C)c1C.O=S(=O)([N-]S(=O)(=O)C(F)(F)F)C(F)(F)F + CCCC[n+]1ccn(C)c1C.F[B-](F)(F)F
electrical conductivity [S/m]
Settings	x1 = 0.1	x1 = 0.2	x1 = 0.3	x1 = 0.4	x1 = 0.5	x1 = 0.6	x1 = 0.7	x1 = 0.8	x1 = 0.9	x1 = 1
313.15 K	0.231	0.249	0.265	0.305	–	0.32	0.35	0.403	0.476	0.465
318.15 K	0.301	0.32	–	0.378	–	0.394	0.432	–	0.572	0.566
323.15 K	0.381	–	–	–	0.476	0.482	0.521	0.59	0.683	0.665
328.15 K	0.474	0.49	0.508	0.54	0.572	0.581	0.617	0.698	0.812	0.777
333.15 K	0.587	0.6	0.617	0.645	0.68	–	0.709	0.816	0.94	0.901
338.15 K	0.707	0.715	–	–	0.796	–	0.839	0.949	1.08	1.04
343.15 K	0.844	0.848	0.859	0.894	0.931	0.952	0.963	1.08	1.23	1.18
348.15 K	0.997	0.995	1.01	–	1.07	1.08	1.09	–	–	1.37
353.15 K	1.16	1.15	1.16	1.18	1.23	1.23	1.24	–	1.56	1.54
358.15 K	–	1.31	1.32	1.34	–	1.4	–	–	1.74	–
363.15 K	1.5	–	1.5	1.51	–	1.57	1.59	1.64	1.91	1.87

CCCC[n+]1ccn(C)c1C.F[B-](F)(F)F + CC[N+](C)(CC)CCOC.F[B-](F)(F)F
x2 = 0
Settings	electrical conductivity [S/m]
318.15 K	0.153
323.15 K	0.202
328.15 K	0.26
353.15 K	0.749
358.15 K	0.867
363.15 K	0.995

CC[N+](C)(CC)CCOC.O=S(=O)([N-]S(=O)(=O)C(F)(F)F)C(F)(F)F + CC[N+](C)(CC)CCOC.F[B-](F)(F)F
x1 = 1
Settings	electrical conductivity [S/m]
293.15 K	0.237
303.15 K	0.382
308.15 K	0.476
313.15 K	0.572
318.15 K	0.683
323.15 K	0.794
328.15 K	0.922
333.15 K	1.06
338.15 K	1.2
343.15 K	1.32

CC[N+](C)(CC)CCOC.F[B-](F)(F)F + CC[N+](C)(CC)CCOC.O=S(=O)([N-]S(=O)(=O)C(F)(F)F)C(F)(F)F
electrical conductivity [S/m]
Settings	x2 = 0	x2 = 0.1	x2 = 0.2	x2 = 0.3	x2 = 0.4	x2 = 0.5	x2 = 0.6	x2 = 0.7	x2 = 0.8	x2 = 0.9
293.15 K	0.096	–	0.133	0.14	0.149	0.161	0.175	0.168	0.184	0.198
298.15 K	0.136	0.161	0.174	–	0.202	0.214	0.234	–	0.251	–
303.15 K	0.19	0.218	0.233	0.25	0.264	0.277	0.304	0.298	0.324	–
308.15 K	0.255	0.292	0.305	–	0.338	–	–	0.381	0.407	0.423
313.15 K	0.343	0.381	–	–	0.425	0.444	0.47	0.472	–	0.509
318.15 K	0.437	0.483	0.485	0.506	–	0.541	0.569	–	0.599	0.625
323.15 K	0.553	0.596	–	–	0.636	0.652	0.684	0.687	0.709	0.731
328.15 K	0.68	0.737	–	0.734	0.763	0.779	–	0.804	0.833	0.863
333.15 K	0.829	–	0.858	0.873	0.897	–	0.934	–	0.964	0.993
338.15 K	1	1.06	1.02	1.02	1.04	1.06	1.08	–	1.11	1.13
343.15 K	1.18	1.24	–	–	1.2	1.22	1.24	1.23	–	1.29

CCCCn1cc[n+](C)c1C.O=S(=O)([N-]S(=O)(=O)C(F)(F)F)C(F)(F)F + CC[N+](C)(CC)CCOC.O=S(=O)([N-]S(=O)(=O)C(F)(F)F)C(F)(F)F
electrical conductivity [S/m]
Settings	x2 = 0	x2 = 0.1	x2 = 0.2	x2 = 0.3	x2 = 0.4	x2 = 0.5	x2 = 0.6	x2 = 0.7	x2 = 0.8	x2 = 0.9
293.15 K	–	0.191	–	0.195	0.201	–	0.206	0.211	0.21	0.21
298.15 K	–	0.253	–	0.259	0.263	0.264	0.268	0.275	0.28	0.28
303.15 K	0.302	0.323	0.326	0.325	0.336	0.337	0.345	0.355	0.351	0.351
308.15 K	–	0.402	0.403	0.407	0.414	0.423	0.426	0.432	0.434	0.434
313.15 K	0.465	0.498	0.497	0.499	0.509	–	0.515	–	0.56	0.56
318.15 K	0.566	0.589	–	0.601	0.611	0.616	0.62	0.638	–	0.648
323.15 K	–	0.705	0.71	0.722	0.726	0.735	0.742	–	0.763	0.763
328.15 K	–	–	0.825	–	–	0.865	0.87	0.876	0.902	–
333.15 K	0.901	0.965	0.962	0.969	0.973	0.991	–	1.01	1.02	1.02
338.15 K	1.04	1.1	–	1.12	1.12	1.13	1.13	1.16	1.17	1.17
343.15 K	1.18	–	–	1.27	1.27	1.28	1.29	1.32	–	1.33

CCCC[n+]1ccn(C)c1C.F[B-](F)(F)F + FC(S(=O)(=O)[N-]S(=O)(=O)C(F)(F)F)(F)F.C(CCC)N1C(=[N+](C=C1)C)C
x2 = 0
Settings	electrical conductivity [S/m]
318.15 K	0.153
333.15 K	0.335
343.15 K	0.531
348.15 K	0.63
353.15 K	0.749
358.15 K	0.867
363.15 K	0.995

CC[N+](C)(CC)CCOC.O=S(=O)([N-]S(=O)(=O)C(F)(F)F)C(F)(F)F + FC(S(=O)(=O)[N-]S(=O)(=O)C(F)(F)F)(F)F.C(CCC)N1C(=[N+](C=C1)C)C
x1 = 1
Settings	electrical conductivity [S/m]
293.15 K	0.237
298.15 K	0.311
303.15 K	0.382
308.15 K	0.476
313.15 K	0.572
318.15 K	0.683
323.15 K	0.794
328.15 K	0.922
333.15 K	1.06
338.15 K	1.2
343.15 K	1.32
